Assay results from paper PMC5430895 (Scientific Reports, 2017).

Experiments:
hOCT2 [1] = molecular target: T1, hOCT2 (Homo sapiens, UniProt O15244); assay: Inhibition of ASP+ uptake in hOCT2-HEK293 cells (apparent affinity); assay type: cell-based; design: expressed in transfected cells; host or cells: HEK293; details: hOCT2-HEK293, ASP+ 1 µM
T1 sequence (O15244 1-555): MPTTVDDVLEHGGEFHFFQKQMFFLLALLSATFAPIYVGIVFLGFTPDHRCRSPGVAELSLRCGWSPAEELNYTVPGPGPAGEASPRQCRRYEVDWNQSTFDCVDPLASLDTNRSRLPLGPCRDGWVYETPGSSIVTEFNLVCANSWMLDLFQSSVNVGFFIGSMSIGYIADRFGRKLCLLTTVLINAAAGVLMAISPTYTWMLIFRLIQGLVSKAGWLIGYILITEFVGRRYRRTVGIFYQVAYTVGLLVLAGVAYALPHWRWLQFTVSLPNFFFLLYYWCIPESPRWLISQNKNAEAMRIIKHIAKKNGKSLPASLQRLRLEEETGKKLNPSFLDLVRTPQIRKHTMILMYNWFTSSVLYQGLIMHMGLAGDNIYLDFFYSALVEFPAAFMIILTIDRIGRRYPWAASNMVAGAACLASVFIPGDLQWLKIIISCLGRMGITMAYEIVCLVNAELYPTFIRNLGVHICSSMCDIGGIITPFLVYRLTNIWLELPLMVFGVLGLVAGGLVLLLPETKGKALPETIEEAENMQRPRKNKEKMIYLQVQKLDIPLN

RASF = assay: PDGF-induced proliferation of cultured RASF (cell counting); assay type: cell-based, human; details: 18 h, PDGF 10 ng/ml
Method: Data are shown as mean ± SEM. […] Cells were grown at standard conditions. […] Cell number was evaluated with a […] cell counter (Roche Innovatis, Reutlingen, Germany).

hOCTN1 [2] = molecular target: T2, hOCTN1 (Homo sapiens, UniProt Q9H015); assay: Saracatinib uptake in hOCTN1-overexpressing HEK293 cells (HPLC-UV)
T2 sequence (Q9H015 1-551): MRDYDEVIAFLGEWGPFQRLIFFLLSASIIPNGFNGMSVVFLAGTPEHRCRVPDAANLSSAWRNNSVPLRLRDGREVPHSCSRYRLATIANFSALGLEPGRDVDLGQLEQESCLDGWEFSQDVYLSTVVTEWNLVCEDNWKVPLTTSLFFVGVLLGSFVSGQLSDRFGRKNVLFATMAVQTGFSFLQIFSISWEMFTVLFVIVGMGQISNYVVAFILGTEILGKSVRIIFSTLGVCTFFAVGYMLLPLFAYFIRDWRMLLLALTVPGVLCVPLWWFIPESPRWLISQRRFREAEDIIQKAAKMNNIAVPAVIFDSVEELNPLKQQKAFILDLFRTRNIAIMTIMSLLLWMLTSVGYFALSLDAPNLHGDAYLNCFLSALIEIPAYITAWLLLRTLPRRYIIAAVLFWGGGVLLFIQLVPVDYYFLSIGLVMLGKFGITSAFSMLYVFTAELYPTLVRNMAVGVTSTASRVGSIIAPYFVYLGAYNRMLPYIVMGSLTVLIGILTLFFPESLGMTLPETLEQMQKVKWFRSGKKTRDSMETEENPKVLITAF
Method: Twenty-four hours before starting experiments hOCTN1 expression was induced by 1 mg/l doxycycline (Sigma-Aldrich, Steinheim, Germany). Cells were grown at standard conditions. […] Cell number was evaluated with a CASEYTT cell counter (Roche Innovatis, Reutlingen, Germany).
After incubation, cells were washed with ice-cold PBS and hypoosmotic lysis was induced with 0.1% formic acid. […] The mobile phase consisted of (A) acetonitrile with 0.1% formic acid and (B) 0.1% formic acid and was delivered at 0.3 ml/min in a gradient program. After delivering 100% B for 3 min, a linear gradient to 100% A was applied within 7 min and maintained for 5 min. Thereafter, in order to re-equilibrate the column, a simple isocratic elution step with 100% eluent B was applied for at least 6 min. […] Separation was carried out on an Accucore C18 column equipped with a C18 guard column. The data were acquired by ChromQuest 5.0 chromatography software.

hOCT2 [3] = molecular target: T1, hOCT2; assay: Saracatinib uptake in hOCT2-overexpressing HEK293 cells (HPLC-UV); details: hOCT2-HEK293, 10 µM saracatinib, 10 min, difference of accumulation at 4 °C and 37 °C
hOCTN2 = molecular target: T3, hOCTN2 (Homo sapiens, UniProt O76082); assay: Saracatinib uptake in hOCTN2-expressing HEK293 cells (HPLC-UV); details: hOCTN2-HEK293, 10 µM saracatinib, 10 min; not significantly different from WT
T3 sequence (O76082 1-557): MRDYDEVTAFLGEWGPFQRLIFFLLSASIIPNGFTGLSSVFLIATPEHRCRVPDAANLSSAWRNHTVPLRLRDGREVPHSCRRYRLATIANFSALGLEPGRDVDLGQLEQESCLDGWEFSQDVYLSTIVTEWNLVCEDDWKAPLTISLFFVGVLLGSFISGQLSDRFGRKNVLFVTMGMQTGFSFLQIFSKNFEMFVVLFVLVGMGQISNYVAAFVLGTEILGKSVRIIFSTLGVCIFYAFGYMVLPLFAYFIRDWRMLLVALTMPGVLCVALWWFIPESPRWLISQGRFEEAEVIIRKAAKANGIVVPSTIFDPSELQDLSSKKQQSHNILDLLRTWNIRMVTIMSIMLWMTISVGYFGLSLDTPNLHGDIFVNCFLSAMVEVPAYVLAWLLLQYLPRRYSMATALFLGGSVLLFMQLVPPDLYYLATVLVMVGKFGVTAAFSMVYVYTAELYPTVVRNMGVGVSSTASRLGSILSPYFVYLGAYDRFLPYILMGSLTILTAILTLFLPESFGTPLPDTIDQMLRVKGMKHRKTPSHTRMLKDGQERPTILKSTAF

hOCTN1 [4] = molecular target: T2, hOCTN1; assay: Inhibition of ASP+ uptake in hOCTN1-HEK293 cells (apparent affinity); assay type: cell-based; design: expressed in transfected cells; host or cells: HEK293, expression induced with 1 mg/l doxycycline; details: hOCTN1-HEK293, ASP+ 1 µM
WT-HEK293 cells = assay: Saracatinib uptake in WT-HEK293 cells (HPLC-UV); details: WT-HEK293, 10 µM saracatinib, 10 min

## CN1CCN(CCOc2cc(OC3CCOCC3)c3c(Nc4c(Cl)ccc5c4OCO5)ncnc3c2)CC1 [saracatinib, N-(5-chloro-1,3-benzodioxol-4-yl)-7-[2-(4-methylpiperazin-1-yl)ethoxy]-5-(tetrahydro-2H-pyran-4-yloxy)quinazolin-4-amine]
hOCT2 [1]
  IC50: 900 nM
RASF; 0.1 µM saracatinib
  inhibition of PDGF-induced cell proliferation: Complete inhibition
RASF; 0.001–1 µM saracatinib
  inhibition of PDGF-induced cell proliferation: potent and dose-dependent inhibition
hOCTN1 [2]; hOCTN1-HEK293, 10 µM saracatinib, 10 min, difference of accumulation at 4 °C and 37 °C
  saracatinib accumulation (specific uptake): 9.3 ± 1.6 nmol/mg protein
hOCTN1 [2]; hOCTN1-HEK293 cells
  influence of extracellular pH on saracatinib uptake: pH dependent
hOCTN1 [2]; hOCTN1-HEK293 cells, 10 µM saracatinib
  time for which hOCTN1 mediated saracatinib accumulation is linear: at least 15 min
hOCTN1 [2]; hOCTN1-HEK293 cells, 10 min incubation
  maximum saracatinib uptake (Vmax): 79.7 ± 5.2 nmol/mg protein
hOCT2 [3]
  saracatinib accumulation (specific uptake): 7.0 ± 0.5 nmol/mg protein
hOCTN2
  saracatinib accumulation (specific uptake): 3.8 ± 1.7 nmol/mg protein
hOCTN1 [4]
  IC50: 72 nM
WT-HEK293 cells
  saracatinib accumulation (specific uptake): 1.8 ± 0.5 nmol/mg protein
